Reference: patent US7226783B1, “Vanillin production” (David Michael & Co., Inc., priority 1997, dated 2007)

Experiments:
Vanilla embryo culture = experiment: Feeding vanilla embryo culture with vanillin precursors, HPLC analysis of metabolites; type: cell-based, Vanilla planifolia
Text: We derived a scheme for the vanillin biosynthetic pathway by analysis of metabolites in cultured embryos and by experiments with feeding of precursors and intermediates. This scheme is shown in FIG. 1 and the experiments are described below.
Embryo cultures of Vanilla planifolia were established as described in Example 1. The procedures used to extract phenolics from the cultured embryo cells and to analyze the extracts by high pressure liquid chromatography (HPLC) were as described generally by Havkin-Frenkel et al., Plant Cell, Tissue and Organ Culture 45: 133–136 (1996).
In the extraction procedure, 3 ml of 0.05 M sodium acetate buffer, pH 5.5, was added to about 1 gram of fresh culture. Samples were placed in boiling water for three minutes, then chilled. The cells were next homogenized in a Polytron blender for 1 minute at medium speed. A β-glucosidase solution was added to the homogenized cells to give a final concentration of 0.2%. Each sample was then incubated at 37° C. for 5 hr. Next, 17 ml of 95% ethanol was added, after which incubation at 37° C. was continued for an additional 24 hrs. The extract was then filtered and the ethanol evaporated. The filtrate was extracted twice using ethyl acetate, then extracted twice with ethyl acetate acidified to pH 3 with HCl. The extracts were combined and the ethyl acetate evaporated. The residue was dissolved in 1 ml of acidified methanol and filtered with a 0.45 μm syringe filter for HPLC analysis.
Extractions of metabolites from culture medium was similar to the cell extraction protocol. Five ml of spent medium was incubated in a β-glucosidase solution at 37° C. for 24 hrs. The medium was then extracted with ethyl acetate and the organic portions combined and evaporated, as for the cell extracts.
Metabolite levels were measured with a Hewlett Packard 1090L or a Waters HPLC with a UV detector at 280 nm. The Waters HPLC was also equipped with a diode array detector to confirm the identities of the various intermediates, and the identities of the various intermediates were further confirmed by mass spectrometry. The column was a Supelco C-18 DB column of dimensions 250 mm×4.6 mm and a particle size of 5 μm. The mobile phase contained methanol and water, each of which was acidified with 1.25% acetic acid. The flow rate was 1 ml/min, with a solvent gradient as follows: […]
Results of selected experiments in which precursors or elicitors were added to vanilla cultures are set forth below. These experiments were performed in accordance with the procedures set forth in Examples 1–4.

[1] = test system: alcohol dehydrogenase from Vanilla planifolia embryo culture (vanillyl alcohol dehydrogenase, VAD); experiment: Substrate specificity of vanillyl alcohol dehydrogenase (VAD); type: biochemical
Description: We have purified and characterized the activity of VAD that catalyze the reduction of vanillin to vanillyl alcohol. The enzyme was identified as an NADH or NADPH-dependent alcohol dehydrogenase. The purification protocol was as set forth below.
Crude enzyme extract: Tissue was homogenized in 0.05 M actetate-Na buffer pH 4.0 (in proportion, 1 g of the tissue and 5 ml of the buffer) in an ice bath, using Polytrone homogenizer, at 20,000 revolutions of the blade per min. The homogenate was centrifuged at 13000 g for 15 min at 4° C. and the supernatant served as the crude enzyme source.
Ammonium sulfate fractionation and molecular sieving: Crude enzyme extract (100 ml) was supplied with ammonium sulfate in an ice bath up to 60% of saturation (44.4 g of Ammonium sulphate per 100 ml). The precipitate was centrifuged and discarded. The supernatant was supplied with ammonium sulfate up to 90% of saturation (total 64.6 g per 100 ml of crude extract). The precipitate was collected (10 min centrifugation at 10,000 g), dissolved in 7 ml of extraction buffer and subjected to molecular sieving at Sephacryl S-300 High Load Column (LKB Pharmacia) 2.6×60 cm, in 0.1 M pH 4.0 acetate-Na buffer. The flow rate was adjusted to 1 ml/min and 5 ml fractions were collected. The protein elution profile was monitored at 280 nm. Five fractions (of a total of 50) containing dehydrogenase activity (130–155 ml of the column eluate) were collected.
The column was developed with 0.5 M Tris/HCL buffer pH 7.4 in 0.0–1.0 M NaCl gradient (total gradient volume—70 ml) and 2.5 ml fractions were collected. Vanillyl alcohol dehydrogenase was released from the column between 0.3–0.4 M NaCl. Fractions containing VAD activity were dialysed overnight against 0.05 M caetate-Na buffer pH 4.0 and concentrated up to 50 times using Minicon concentrating filters (Amicon). […]

[2] = test system: V. planifolia tissue culture; experiment: Bio-conversion of 3,4-dihydroxybenzaldehyde to vanillin and vanillyl alcohol in tissue culture; type: cell-based, Vanilla planifolia; details: addition of 1–5 mM pro-ald
Description: The following procedure was used for the bio-conversion of 3,4-dihydroxybenzaldehyde (“proaldehyde”) to vanillin and vanillyl alcohol in V. planifolia tissue culture. The medium used for cultures was G-medium as described above. Pro-ald solutions were prepared in G-medium, to final concentrations of 0.01 to 5 mM.
Cultures used for the bio-conversion were (1) clusters, (2) embryo culture, and (3) tissue homogenates of the above cultures. Cultures were of varying ages ranging from 0 to 1 month old. The cultures were allowed to remain under normal culture conditions for 0 to 15 days. As controls, untreated cultures were extracted and analyzed as described in Example 2.
Proaldehyde at different concentrations was added to the medium, either alone or in combination with the following treatments:
Bioreactor-grown cultures were used for the bio-conversions. Different kinds of impeller designs were used to increase or decrease shear stress on the cells prior to the addition of pro-ald.

[3] = test system: V. planifolia embryo culture; experiment: Uptake of exogenously added vanillin and transformation to vanillyl alcohol in embryo culture; type: cell-based, Vanilla planifolia
Text: FIG. 3. Graph showing uptake of exogenously added vanillin and its transformation to vanillyl alcohol by vanillyl alcohol dehydrogenase in V. planifolia embryo culture. V(T)=vanillin in tissue; V(M)=vanillin in medium; VAL(T)=vanillyl alcohol in tissue; VAL(M)=vanillyl alcohol in medium.
Similarly, vanilla embryo culture that can be elicited by various elicitors to produce vanillin accumulates vanillyl alcohol as a final product. It is important to state at this stage that all the intermediates in the pathway are found mainly as glucosides.

## O=Cc1ccc(O)c(O)c1 [PRO-ALD, 3,4-dihydroxybenzaldehyde]
Vanilla embryo culture; feeding experiments, Example 2
  fate of exogenously fed compound in cultured embryos: rapid methylation and conversion to vanillin or vanillyl alcohol
Vanilla embryo culture; precursor fed at 1 mM
  CA (p-coumaric acid) content of culture: 285 mg/100 g dry wt.
  HBA (p-hydroxybenzyl alcohol) content of culture: 8950 mg/100 g dry wt.
  PRO-ALD (3,4-dihydroxybenzaldehyde) content of culture: 433 mg/100 g dry wt.
  VN (vanillin) content of culture: 16.7 mg/100 g dry wt.
  VN ALC (vanillyl alcohol) content of culture: 286.8 mg/100 g dry wt.
[1]
  substrate preference of VAD: most preferred substrates
[1]; cofactor NADH
  Activity with the compound as substrate, NADH: 1.89 nmoles · gfwt^−1 · min^−1
[1]; cofactor NADPH
  Activity with the compound as substrate, NADPH: 2.11 nmoles · gfwt^−1 · min^−1
[2]
  increase of production of vanillin/vanillyl alcohol: several hundred fold
[3]
  fate of compound applied to the growing medium of embryo culture: accumulation of vannilyl alcohol
